Assay results taken from patent publication US20250101041A1, “POSITIVE ALLOSTERIC MODULATORS OF THE MUSCARINIC ACETYLCHOLINE RECEPTOR M4” (Vanderbilt University, priority 2022, published 2025).

Biological target: T1, human mAChR M4 (Homo sapiens, UniProt P08173)
T1 construct: expressed in transfected cells; host or cells: CHO-K1 (American Type Culture Collection), stably expressing hM4 and Gqi5
T1 sequence (P08173 1-479): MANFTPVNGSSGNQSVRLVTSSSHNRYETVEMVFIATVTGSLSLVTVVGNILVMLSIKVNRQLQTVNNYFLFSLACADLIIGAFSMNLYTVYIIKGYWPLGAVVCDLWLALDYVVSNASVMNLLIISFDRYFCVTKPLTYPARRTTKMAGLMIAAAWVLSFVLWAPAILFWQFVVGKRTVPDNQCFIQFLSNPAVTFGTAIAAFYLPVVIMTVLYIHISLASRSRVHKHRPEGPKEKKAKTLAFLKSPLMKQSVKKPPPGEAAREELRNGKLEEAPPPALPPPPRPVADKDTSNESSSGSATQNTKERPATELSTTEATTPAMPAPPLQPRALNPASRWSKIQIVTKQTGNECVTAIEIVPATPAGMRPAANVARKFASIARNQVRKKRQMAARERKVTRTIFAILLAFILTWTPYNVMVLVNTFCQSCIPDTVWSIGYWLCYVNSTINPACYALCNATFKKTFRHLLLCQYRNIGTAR
Assay: mAChR M4 cell-based functional assay: calcium mobilization (Fluo-4, FDSS), potentiation of EC20 acetylcholine response in hM4-Gqi5 CHO-K1 cells
Details: human M4; for Emax at 30 µM: CHO-K1, % ACh maximum at 30 μM; for EC50: potentiation of EC20 acetylcholine response, calcium mobilization
In short: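 CHO-K1 cells stably co-expressing human M4 and chimeric Gqi5, loaded with Fluo-4 AM (50 min, 37 °C). Compounds in 11-point 1:3 series added first; EC20 acetylcholine added at 144 s and again at 230 s. Calcium read on FDSS at 1 Hz; EC50 and Emax from four-parameter logistic fit of potentiated EC20 response.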

SMILES	Emax at 30 µM [%]	EC50 [nM]
Cc1c(N2CCc3ncc(-c4ccccc4OC(F)(F)F)cc3C2)nn2c(=O)ccnc2c1C [Compound 1-265, 8,9-dimethyl-7-(3-(2-(trifluoromethoxy)phenyl)-7,8-dihydro-1,6-naphthyridin-6(5H)-yl)-4H-pyrimido[1,2-b] pyridazin-4-one]	61	929
COCc1cc(=O)n2nc(N3CCc4ncc(-c5cnc(Cl)cc5C)cc4C3)c(C)c(C)c2n1 [Compound 1-379, 7-(3-(6-chloro-4-methylpyridin-3-yl)-7,8-dihydro-1,6-naphthyridin-6(5H)-yl)-2-(methoxymethyl)-8,9-dimethyl-4H-pyrimido[1,2-b]pyridazin-4-one]	109	357
Cc1cc2nccc(=O)n2nc1N1CCc2ncc(-c3ccc(C#N)nc3)cc2C1 [Compound 1-316, 5-(6-(8-methyl-4-oxo-4H-pyrimido[1,2-b]pyridazin-7-yl)-5,6,7,8-tetrahydro-1,6-naphthyridin-3-yl)picolinonitrile]	71	
Cc1c(N2CCc3ncc(-c4cncc(Cl)c4)cc3C2)nn2c(=O)cc(C(F)F)nc2c1C [Compound 1-160, 7-(3-(5-chloropyridin-3-yl)-7,8-dihydro-1,6-naphthyridin-6(5H)-yl)-2-(difluoromethyl)-8,9-dimethyl-4H-pyrimido[1,2-b]pyridazin-4-one]	82	547
Cc1cc2nccc(=O)n2nc1N1CCc2ncc(-c3cc(F)cc(F)c3C)cc2C1 [Compound 1-447, 7-(3-(3,5-difluoro-2-methylphenyl)-7,8-dihydro-1,6-naphthyridin-6(5H)-yl)-8-methyl-4H-pyrimido [1,2-b]pyridazin-4-one]	83	191
Cc1cc2nccc(=O)n2nc1N1CCc2ncc(-c3cccc4c3CCC4)cc2C1 [Compound 1-436, 7-(3-(2,3-dihydro-1H-inden-4-yl)-7,8-dihydro-1,6-naphthyridin-6(5H)-yl)-8-methyl-4H-pyrimido[1,2-b]pyridazin-4-one]	78	484
Cc1cc(=O)n2nc(N3CCc4ncc(-c5cnn(CC(F)(F)F)c5)cc4C3)c(C)c(C)c2n1 [Compound 1-184, 2,8,9-trimethyl-7-(3-(1-(2,2,2-trifluoroethyl)-1H-pyrazol-4-yl)-7,8-dihydro-1,6-naphthyridin-6(5H)-yl)-4H-pyrimido[1,2-b]pyridazin-4-one]	80	1260
[2H]C1([2H])Cc2ncc(-c3ccnn3C)cc2C([2H])([2H])N1c1nn2c(=O)ccnc2cc1C [Compound 1-449, 8-methyl-7-(3-(1-methyl-1H-pyrazol-5-yl)-7,8-dihydro-1,6-naphthyridin-6(5H)-yl-5,5,7,7-d4)-4H-pyrimido[1,2-b]pyridazin-4-one]	93	283
Cc1c(N2CCc3ncc(-c4cncc(F)c4)cc3C2)nn2c(=O)cc(C(F)F)nc2c1C [Compound 1-156, 2-(difluoromethyl)-7-(3-(5-fluoropyridin-3-yl)-7,8-dihydro-1,6-naphthyridin-6(5H)-yl)-8,9-dimethyl-4H-pyrimido[1,2-b]pyridazin-4-one]	95	204
Cc1ccc(-c2cnc3c(c2)CN(c2nn4c(=O)cc(CC5CCCC5)nc4c(C)c2C)CC3)cn1 [Compound 1-226, 2-(cyclopentylmethyl)-8,9-dimethyl-7-(3-(6-methylpyridin-3-yl)-7,8-dihydro-1,6-naphthyridin-6(5H)-yl)-4H-pyrimido[1,2-b]pyridazin-4-one]	59	1190
CC(=O)N1CC=C(c2cnc3c(c2)CN(c2nn4c(=O)ccnc4cc2C)CC3)CC1 [Compound 1-388, 7-(3-(1-acetyl-1,2,3,6-tetrahydropyridin-4-yl)-7,8-dihydro-1,6-naphthyridin-6(5H)-yl)-8-methyl-4H-pyrimido[1,2-b]pyridazin-4-one]	61	1280
Cc1cc(=O)n2nc(N3CCc4ncc(-c5c(C)nn(C)c5C)cc4C3)c(C)cc2n1 [Compound 1-218, 2,8-dimethyl-7-(3-(1,3,5-trimethyl-1H-pyrazol-4-yl)-7,8-dihydro-1,6-naphthyridin-6(5H)-yl)-4H-pyrimido[1,2-b] pyridazin-4-one]	92	793
Cc1cc2nccc(=O)n2nc1N1CCc2ncc(-c3cccnc3C(F)F)cc2C1 [Compound 1-425, 7-(3-(2-(difluoromethyl)pyridin-3-yl)-7,8-dihydro-1,6-naphthyridin-6(5H)-yl)-8-methyl-4H-pyrimido[1,2-b]pyridazin-4-one]	79	836
Cc1cc(-c2cnc3c(c2)CN(c2nn4c(=O)cc(C)nc4c(C)c2C)CC3)ccn1 [Compound 1-243, 2,8,9-trimethyl-7-(3-(2-methylpyridin-4-yl)-7,8-dihydro-1,6-naphthyridin-6(5H)-yl)-4H-pyrimido[1,2-b] pyridazin-4-one]	84	124
COc1cc(C)c(-c2cnc3c(c2)CN(c2nn4c(=O)cc(C(F)F)nc4c(C)c2C)CC3)cn1 [Compound 1-188, 2-(difluoromethyl)-7-(3-(6-methoxy-4-methylpyridin-3-yl)-7,8-dihydro-1,6-naphthyridin-6(5H)-yl)-8,9-dimethyl-4H-pyrimido[1,2-b]pyridazin-4-one]	91	103
Cc1cc(=O)n2nc(N3CCc4ncc(-c5ccsc5)cc4C3)c(C)c(C)c2n1 [Compound 1-304, 2,8,9-trimethyl-7-(3-(thiophen-3-yl)-7,8-dihydro-1,6-naphthyridin-6(5H)-yl)-4H-pyrimido[1,2-b]pyridazin-4-one]	89	169
Cc1c(N2CCc3ncc(-c4ccccc4Cl)cc3C2)nn2c(=O)ccnc2c1C [Compound 1-267, 7-(3-(2-chlorophenyl)-7,8-dihydro-1,6-naphthyridin-6(5H)-yl)-8,9-dimethyl-4H-pyrimido[1,2-b]pyridazin-4-one]	89	183
Cc1cc2nccc(=O)n2nc1N1CCc2ncc(-c3cccc(C#N)c3C)cc2C1 [Compound 1-437, 2-methyl-3-(6-(8-methyl-4-oxo-4H-pyrimido[1,2-b]pyridazin-7-yl)-5,6,7,8-tetrahydro-1,6-naphthyridin-3-yl)benzonitrile]	70	1010
Cc1c(N2CCc3ncc(-c4ccccc4C(F)(F)F)cc3C2)nn2c(=O)ccnc2c1C [Compound 1-266, 8,9-dimethyl-7-(3-(2-(trifluoromethyl)phenyl)-7,8-dihydro-1,6-naphthyridin-6(5H)-yl)-4H-pyrimido[1,2-b] pyridazin-4-one]	81	621

Continued, values first:

Emax at 30 µM [%]	EC50 [nM]	SMILES
50	1050	Cc1c(N2CCc3ncc(N4C(=O)Cc5ncccc54)cc3C2)nn2c(=O)ccnc2c1C [Compound 2-149, 8,9-dimethyl-7-(3-(2-oxo-2,3-dihydro-1H-pyrrolo[3,2-b]pyridin-1-yl)-7,8-dihydro-1,6-naphthyridin-6(5H)-yl)-4H-pyrimido[1,2-b]pyridazin-4-one]
88	12	Cc1cc2nc(C)c(Cl)c(=O)n2nc1N1CCc2ncc(N3CCCn4nccc43)cc2C1 [Compound 2-16, 3-chloro-7-(3-(6,7-dihydropyrazolo[1,5-a]pyrimidin-4(5H)-yl)-7,8-dihydro-1,6-naphthyridin-6(5H)-yl)-2,8-dimethyl-4H-pyrimido[1,2-b]pyridazin-4-one]
94	7	[2H]C1([2H])Cc2ncc(Nc3ccncc3F)cc2C([2H])([2H])N1c1nn2c(=O)ccnc2cc1C [Compound 2-164, 7-(3-((3-fluoropyridin-4-yl)amino)-7,8-dihydro-1,6-naphthyridin-6(5H)-yl-5,5,7,7-d4)-8-methyl-4H-pyrimido[1,2-b]pyridazin-4-one]
85	19	Cc1cc2n(n1)CCCN2c1cnc2c(c1)CN(c1nn3c(=O)cc(C(F)F)nc3cc1C)CC2 [Compound 2-28, 2-(difluoromethyl)-8-methyl-7-(3-(2-methyl-6,7-dihydropyrazolo[1,5-a]pyrimidin-4(5H)-yl)-7,8-dihydro-1,6-naphthyridin-6(5H)-yl)-4H-pyrimido[1,2-b]pyridazin-4-one]
90	290	COc1ccc(Nc2cnc3c(c2)CN(c2nn4c(=O)ccnc4cc2C)CC3)cn1 [Compound 2-134, 7-(3-((6-methoxypyridin-3-yl)amino)-7,8-dihydro-1,6-naphthyridin-6(5H)-yl)-8-methyl-4H-pyrimido[1,2-b]pyridazin-4-one]
96	29	Cc1c(N2CCc3ncc(Oc4ccccc4F)cc3C2)nn2c(=O)ccnc2c1C [Compound 3-3, 7-(3-(2-Fluorophenoxy)-7,8-dihydro-1,6-naphthyridin-6(5H)-yl)-8,9-dimethyl-4H-pyrimido[1,2-b]pyridazin-4-one]
84	398	Cc1cc2nccc(=O)n2nc1N1CCc2ncc(N3CCOC(c4ccc(F)cc4)C3)cc2C1 (stereo not drawn) [Compound 2-64, 7-(3-(2-(4-fluorophenyl)morpholino)-7,8-dihydro-1,6-naphthyridin-6(5H)-yl)-8-methyl-4H-pyrimido[1,2-b]pyridazin-4-one]
